From patent US10329302B2, “Bicyclic-fused heteroaryl or aryl compounds” (Pfizer Inc., priority 2014, dated 2019)
Read-outs that look alike come from different tables or passages of the source.

Experiments:
[1] = molecular target: human IRAK4 FL (Full Length) (Homo sapiens (Human), UniProt Q9NWZ3); test: IRAK4 Enzymatic DELFIA Assay, Protocol A; assay type: biochemical
[2] = test system: R848-induced TNFα production by human peripheral blood mononuclear cells (PBMCs); test: R848 Induced TNFα in Human PBMC Assay; assay type: cell-based
From the text: R848 Induced TNFα in Human PBMC Assay.
This protocol is for R848-induced TNFα production by human peripheral blood mononuclear cells (PBMCs). […] The assay is used to assess cell-based potency of small molecule inhibitors of IRAK4 in the absence of serum.
The PBMCs in the interphase layer were collected and washed with PBS via centrifugation multiple times until the supernatant is clear. The purified PBMCs were re-suspended in RPMI (Roswell Park Memorial Institute) media (Sigma-Aldrich).
For the assay, a compound dilution plate containing a top concentration of 4 mM compound in DMSO was serially diluted 4-fold for 11 times. 250 nL of the compound dilution plate was spotted into a 384-well, flat bottom with lid, TC-treated, black with clear bottom, sterile, polystyrene plate (Corning Life Sciences).
10 μL of anti-TNFα antibody labeled with MSD SULFO-TAG at 50 μg/mL was added to each well and allowed to incubate overnight at 4° C.

[3] = human IRAK4 FL, 0.6 mM ATP (KM), read-out: IRAK4 DELFIA Protocol A IC50
[4] = Homo sapiens, PBMC, 3 h, read-out: R848-induced TNFa PBMC IC50 (nM)

Chain of human IRAK4 FL (Full Length) (Q9NWZ3 whole entry): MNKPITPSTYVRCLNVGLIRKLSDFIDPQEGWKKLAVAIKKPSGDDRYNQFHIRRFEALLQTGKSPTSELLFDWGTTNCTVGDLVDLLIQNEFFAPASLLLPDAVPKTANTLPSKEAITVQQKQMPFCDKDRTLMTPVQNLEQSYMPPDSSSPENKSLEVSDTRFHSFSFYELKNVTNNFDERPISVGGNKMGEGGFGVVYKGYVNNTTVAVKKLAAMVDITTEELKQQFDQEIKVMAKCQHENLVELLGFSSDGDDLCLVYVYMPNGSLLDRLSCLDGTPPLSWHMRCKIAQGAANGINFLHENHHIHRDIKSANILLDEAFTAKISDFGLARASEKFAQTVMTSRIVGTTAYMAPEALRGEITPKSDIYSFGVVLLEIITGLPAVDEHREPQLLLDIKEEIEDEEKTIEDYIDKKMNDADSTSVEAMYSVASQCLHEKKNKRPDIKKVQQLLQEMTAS

| Compound | IC50 [1, 3] [nM] | IC50 [2, 4] [nM] | IC50 [1] [nM] | IC50 ([2]; human PBMC, absence of serum, 3 hours, read-out: R848-induced TNFa PBMC IC50) [nM] |
| --- | --- | --- | --- | --- |
| COc1cc2c(OC[C@H]3NC(=O)C[C@H]3C)cccc2cc1C(N)=O [Example 216, 3-methoxy-5-{[(2S,3R)-3-methyl-5-oxopyrrolidin-2-yl]methoxy}naphthalene-2-carboxamide] | 0.4 | 27 |  |  |
| CC[C@@]1(F)C[C@@H](COc2ccnc3cc(C(N)=O)c(OC)cc23)NC1=O [Example 260, 4-{[(2S,4R)-4-ethyl-4-fluoro-5-oxopyrrolidin-2-yl]methoxy}-6-methoxyquinoline-7-carboxamide] | 202 | 6280 |  |  |
| CC[C@@H]1[C@H](F)C(=O)N[C@@H]1COc1nccc2cc(C(N)=O)c(OC)c(F)c12 [Example 361, 1-{[(2S,3S,4S)-3-ethyl-4-fluoro-5-oxopyrrolidin-2-yl]methoxy}-8-fluoro-7-methoxyisoquinoline-6-carboxamide] | 4.8 | 27 |  |  |
| CC(C)Oc1cc2c(OC[C@@H]3CC(F)C(=O)N3)nccc2cc1C(N)=O (stereo partly drawn) [Example 112, 1-{[(2S)-4-fluoro-5-oxopyrrolidin-2-yl]methoxy}-7-(propan-2-yloxy)isoquinoline-6-carboxamide] | 1 | 50 |  |  |
| CC[C@H]1C[C@@H](COc2nccc3cc(C(N)=O)c(OC(C)C)cc23)NC1=O [Example 135, 1-{[(2S,4S)-4-ethyl-5-oxopyrrolidin-2-yl]methoxy}-7-(propan-2-yloxy)isoquinoline-6-carboxamide] | 1.2 | 32 |  |  |
| COc1cc2c(OC[C@H]3NC(=O)[C@@H]4C[C@H]34)ccnc2cc1C(N)=O [Example 326, 6-methoxy-4-{[(1S,2S,5R)-4-oxo-3-azabicyclo[3.1.0]hex-2-yl]methoxy}quinoline-7-carboxamide] | 1.2 | 1200 |  |  |
| COc1cc2c(OC[C@@H]3C[C@@](F)(CF)C(=O)N3)nccc2cc1C(N)=O [Example 215, 1-{[(2S,4S)-4-fluoro-4-(fluoromethyl)-5-oxopyrrolidin-2-yl]methoxy}-7-methoxyisoquinoline-6-carboxamide] |  | 35 | 1.7 |  |
| COc1cc2c(OC[C@H]3NC(=O)O[C@H]3C)nccc2cc1C(N)=O [Example 236, 7-methoxy-1-{[(4R,5S)-5-methyl-2-oxo-1,3-oxazolidin-4-yl]methoxy}isoquinoline-6-carboxamide] | 8.4 | 125 |  |  |
| CC[C@]1(F)C[C@@H](COc2ccnc3cc(C(N)=O)c(OC)cc23)NC1=O [Example 259, 4-{[(2S,4S)-4-ethyl-4-fluoro-5-oxopyrrolidin-2-yl]methoxy}-6-methoxyquinoline-7-carboxamide] | 3.1 | 120 |  |  |
| COc1cc2c(OC[C@H]3NC(=O)O[C@H]3C)cccc2cc1C(N)=O [Example 234, 3-methoxy-5-{[(4R,5S)-5-methyl-2-oxo-1,3-oxazolidin-4-yl]methoxy}naphthalene-2-carboxamide] | 1.9 | 45 |  |  |
| COc1cc2c(OC[C@@H]3C[C@@H](F)C(=O)N3)nccc2cc1C(N)=O [Example 253, 1-{[(2S,4R)-4-fluoro-5-oxopyrrolidin-2-yl]methoxy}-7-methoxyisoquinoline-6-carboxamide] | 2.6 | 122 |  |  |
| CC(C)Oc1cc2c(OC[C@H]3NC(=O)C[C@H]3C)nccc2cc1C(N)=O [Example 219, 1-{[(2S,3R)-3-methyl-5-oxopyrrolidin-2-yl]methoxy}-7-(propan-2-yloxy)isoquinoline-6-carboxamide] | 1.7 | 65 |  |  |
| COc1cc2c(OC[C@H]3NC(=O)[C@@H]4[C@@H](CO)[C@@H]43)nccc2cc1C(N)=O [Example 327, 1-{[(1S,2S,5S)-6-(hydroxymethyl)-4-oxo-3-azabicyclo[3.1.0]hex-2-yl]methoxy}-7-methoxyisoquinoline-6-carboxamide] | 20 | 3310 |  |  |
| CCOc1cc2c(OC[C@@H]3C[C@](C)(F)C(=O)N3)nccc2cc1C(N)=O [Example 278, 7-ethoxy-1-{[(2S,4S)-4-fluoro-4-methyl-5-oxopyrrolidin-2-yl]methoxy}isoquinoline-6-carboxamide] | 8.5 | 299 |  |  |
| COc1cc2c(OC[C@H]3NC(=O)[C@@H]4[C@@H](F)[C@@H]43)nccc2cc1C(N)=O [Example 315, 1-{[(1S,2S,5R)-6-fluoro-4-oxo-3-azabicyclo[3.1.0]hex-2-yl]methoxy}-7-methoxyisoquinoline-6-carboxamide] | 1.5 | 45 |  |  |
| COC[C@H]1[C@@H](COc2nccc3cc(C(N)=O)c(OC)cc23)NC(=O)C1(F)F [Example 347, 1-{[(2S,3R)-4,4-difluoro-3-(methoxymethyl)-5-oxopyrrolidin-2-yl]methoxy}-7-methoxyisoquinoline-6-carboxamide] | 0.6 | 27 |  |  |
| CC[C@@H]1[C@H](F)C(=O)N[C@@H]1COc1nccc2cc(C(N)=O)c(OC(C)C)cc12 [Example 358, 1-{[(2S,3S,4S)-3-ethyl-4-fluoro-5-oxopyrrolidin-2-yl]methoxy}-7-(propan-2-yloxy)isoquinoline-6-carboxamide] | 0.4 | 1.3 |  |  |
| COc1cc2c(OC[C@H]3NC(=O)[C@@H](OC)[C@H]3C)nccc2cc1C(N)=O [Example 349, 7-methoxy-1-{[(2S,3S,4S)-4-methoxy-3-methyl-5-oxopyrrolidin-2-yl]methoxy}isoquinoline-6-carboxamide] | 2960 | 9460 |  |  |
| CC(C)Oc1cc2c(OC[C@@H]3COC(=O)N3)nccc2cc1C(N)=O [Example 04, 1-{[(4R)-2-oxo-1,3-oxazolidin-4-yl]methoxy}-7-(propan-2-yloxy)isoquinoline-6-carboxamide] | 6.6 | 1800 |  |  |
| COc1cc2c(OC[C@H]3NC(=O)[C@H]4[C@@H]3C4(Cl)Cl)nccc2cc1C(N)=O [Example 311, 1-{[(1S,2S,5R)-6,6-dichloro-4-oxo-3-azabicyclo[3.1.0]hex-2-yl]methoxy}-7-methoxyisoquinoline-6-carboxamide] | 229 | 1080 |  |  |
| COc1cc2c(OC[C@@H]3C[C@](C)(F)C(=O)N3)nccc2cc1C(N)=O [Example 177, 1-{[(2S,4S)-4-fluoro-4-methyl-5-oxopyrrolidin-2-yl]methoxy}-7-methoxyisoquinoline-6-carboxamide] | 3.8 | 43 |  |  |
| CCC[C@@H]1CC(=O)N[C@@H]1COc1nccc2cc(C(N)=O)c(OC)cc12 [Example 312, 7-methoxy-1-{[(2S,3R)-5-oxo-3-propylpyrrolidin-2-yl]methoxy}isoquinoline-6-carboxamide] | 1.3 | 26 |  |  |
| COc1cc2c(OC[C@@H]3C[C@@H](CC(F)(F)F)C(=O)N3)nccc2cc1C(N)=O [Example 267, 7-methoxy-1-{[(2S,4S)-5-oxo-4-(2,2,2-trifluoroethyl)pyrrolidin-2-yl]methoxy}isoquinoline-6-carboxamide] | 15 | 158 |  |  |
| C[C@@H]1[C@H](F)C(=O)N[C@@H]1COc1nccc2cc(C(N)=O)c(OC3CC3)cc12 [Example 281, 7-(cyclopropyloxy)-1-{[(2S,3S,4S)-4-fluoro-3-methyl-5-oxopyrrolidin-2-yl]methoxy}isoquinoline-6-carboxamide] | 11 |  |  | 127 |
